Experiment [1] deals with T1, S. cerevisiae gluconokinase (YDR248C) (Saccharomyces cerevisiae, UniProt Q03786).
T1 construct: full ORF with C-terminal His6-tag, expressed in and purified from S. cerevisiae
T1 sequence (Q03786 1-193): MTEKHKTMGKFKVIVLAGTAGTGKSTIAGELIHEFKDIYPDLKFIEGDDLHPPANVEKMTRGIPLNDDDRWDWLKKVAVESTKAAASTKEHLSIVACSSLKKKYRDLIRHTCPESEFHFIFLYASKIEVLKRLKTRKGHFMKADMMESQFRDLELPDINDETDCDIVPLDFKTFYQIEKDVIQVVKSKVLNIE
The experiment is described as follows: gluconokinase assay, HPAEC of products. To be noted: 1 mM gluconate, 5 mM ATP, 0.2 μM enzyme, 1x PBS, 30 °C, 30 min. In kind it is biochemical.

The target of a further experiment is T2, CBT-1 (NCU05853) (Neurospora crassa, UniProt Q7S555).
T2 construct: expressed in S. cerevisiae from plasmid pRS426_NCU05853
T2 sequence (Q7S555 entry or part of it): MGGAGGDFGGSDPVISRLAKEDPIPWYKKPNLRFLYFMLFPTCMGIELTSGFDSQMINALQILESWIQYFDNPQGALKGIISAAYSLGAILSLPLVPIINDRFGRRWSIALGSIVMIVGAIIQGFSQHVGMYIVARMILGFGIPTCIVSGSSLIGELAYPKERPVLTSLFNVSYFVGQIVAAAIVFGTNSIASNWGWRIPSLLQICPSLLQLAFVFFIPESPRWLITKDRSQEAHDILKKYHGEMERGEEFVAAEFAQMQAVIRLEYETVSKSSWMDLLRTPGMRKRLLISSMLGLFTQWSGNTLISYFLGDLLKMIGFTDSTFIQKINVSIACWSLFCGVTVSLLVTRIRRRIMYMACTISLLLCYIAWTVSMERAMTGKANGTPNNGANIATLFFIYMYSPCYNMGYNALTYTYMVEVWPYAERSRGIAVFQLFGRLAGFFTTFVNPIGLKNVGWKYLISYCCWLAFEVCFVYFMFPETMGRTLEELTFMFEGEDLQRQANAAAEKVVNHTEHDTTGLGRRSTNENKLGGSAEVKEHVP
The experiment is described as follows: yeast cell-based uptake assay, HPAEC of remaining sugar. The note with it: pH 6.0, 30 °C, 30 min; 5 mM MES, 100 mM NaCl; S. cerevisiae cells expressing the transporter. An excerpt:
yeast cell-based uptake assay, HPAEC of remaining sugar on CBT-1 (NCU05853) | only NCU05853 […] was capable of transporting cellobionic acid into the cell

The next experiment deals with CAP (NCU09425) (Neurospora crassa, UniProt Q7S0S2). To be noted: 2 mM cellobionate, 0.5 μM enzyme, 1x PBS, 30 °C, 30 min.
CAP (NCU09425), sequence (Q7S0S2 whole entry): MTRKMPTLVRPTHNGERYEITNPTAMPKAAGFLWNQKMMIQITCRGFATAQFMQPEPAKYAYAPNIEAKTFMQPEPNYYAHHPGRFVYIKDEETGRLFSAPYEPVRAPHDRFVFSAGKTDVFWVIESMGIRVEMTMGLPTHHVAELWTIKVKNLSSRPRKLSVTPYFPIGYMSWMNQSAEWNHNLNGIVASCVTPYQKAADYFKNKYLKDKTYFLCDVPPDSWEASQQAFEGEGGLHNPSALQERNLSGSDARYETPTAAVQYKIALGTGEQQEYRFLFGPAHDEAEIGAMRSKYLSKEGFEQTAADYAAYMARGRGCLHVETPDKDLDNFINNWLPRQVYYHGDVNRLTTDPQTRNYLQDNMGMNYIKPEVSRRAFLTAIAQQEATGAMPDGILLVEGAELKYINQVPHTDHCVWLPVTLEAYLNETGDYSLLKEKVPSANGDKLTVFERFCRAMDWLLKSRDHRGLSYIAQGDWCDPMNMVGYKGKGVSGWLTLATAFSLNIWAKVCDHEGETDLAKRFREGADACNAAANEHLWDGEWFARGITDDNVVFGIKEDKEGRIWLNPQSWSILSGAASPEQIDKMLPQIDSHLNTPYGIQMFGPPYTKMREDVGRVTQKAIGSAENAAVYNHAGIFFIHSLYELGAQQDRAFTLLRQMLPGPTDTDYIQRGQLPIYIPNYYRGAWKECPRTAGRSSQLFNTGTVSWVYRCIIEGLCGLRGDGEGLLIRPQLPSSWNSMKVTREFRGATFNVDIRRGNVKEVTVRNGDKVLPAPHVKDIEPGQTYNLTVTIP

SMILES strings stand for the structures.

For the compound `O=C(O)[C@H](O)[C@@H](O)[C@H](O)[C@H](O)CO` [A1, gluconic acid], the “gluconokinase assay, HPAEC of products” value in experiment [1] is “YDR248C has gluconokinase activity in vitro”.

On to `O=C(O)[C@H](O)[C@@H](O)[C@H](O[C@@H]1O[C@H](CO)[C@@H](O)[C@H](O)[C@H]1O)[C@H](O)CO` [A2, cellobionic acid], for which the “yeast cell-based uptake assay, HPAEC of remaining sugar” value at CBT-1 (NCU05853) is “only NCU05853 [...] was capable of transporting cellobionic acid into the cell”. Besides, the “phosphorolysis, HPAEC of products” value at CAP (NCU09425) is “specifically cleaved cellobionic acid to gluconic acid and glucose 1-phosphate”.
